Source: patent US12486489B2, “Culture medium for testing drug resistance of H.pylori as well as preparation method and use thereof” (priority 2022, dated 2025)
Read-outs that look alike come from different tables or passages of the source.

What was measured:
H. pylori [1] = assay: MIC of laboratory H. pylori strains by micro dilution method; format: cell-based; conditions: Helicobacter pylori
Description: (3) Preparation of bacterial solution: H. pylori grown in logarithmic phase on a solid plate is taken, BHI culture medium is used to prepare a bacterial suspension. The concentration of the bacterial solution is adjusted to 1×10^8 CFU/mL (OD600 is 0.3), diluted 10 times, 100 times, and 1000 times to implement a final concentration of […], for the subsequent use.
(4) Inoculation of bacterial solution: 10 μL of the above bacterial solution for the subsequent use is taken and added to wells the 1-10-th and the 12-th well (bacterial working concentration is 1×10^6 CFU/mL), the 11-th well serves as a non-bacterial control and only sterile water is added. The wells are cultivated for 72 hours to determine the results.

H. pylori [2] = assay: Drug resistance testing of laboratory strains on characteristic culture medium (discoloration after 36 hours); format: cell-based, Helicobacter pylori
Description: The characteristic culture media (A, B, C, D, E) are cultivated at a constant temperature of 37° C. for 36 hours in a three gas incubator. The characteristic culture media are removed and placed in a natural environment for 30 minutes to observe whether there are discolorations at the point of the culture medium where the specimen is dropped in. […] Another 100 μL of the specimen is taken and coated on Columbia solid culture medium and cultivated in a three gas incubator at a constant temperature of 37° C. for 3 days to 5 days. The number of colonies on the plate is counted to determine the initial inoculation amount. The micro dilution method is adopted to test the MIC of clinical specimen H. pylori, the test is meaningful only when there is no bacterial growth in the negative control well without bacteria and there is bacterial growth in the positive well with bacteria but without antibiotics. […] The results are recorded and whether the micro dilution method and characteristic culture medium are consistent with each other in evaluating the drug resistance of clinical H. pylori strains is compared. […]
(2) Inoculation of bacterial solution: 10 μL bacterial solution is taken and added dropwise onto a characteristic culture medium with 5 pieces (ABCDE) in total.
(3) Culture: all plates are moved to a three gas incubator and cultivated at 37° C. for 36 hours. After being taken out and placed in a natural environment for 30 minutes, whether the bacteria have resistance is determined based on the discoloration of the characteristic culture medium.

[3] = test system: clinical H. pylori strain; assay: Drug resistance testing of clinical specimens on characteristic culture medium (discoloration after 36 hours); format: cell-based, Helicobacter pylori
Description: The characteristic culture media (A, B, C, D, E) are cultivated at a constant temperature of 37° C. for 36 hours in a three gas incubator. The characteristic culture media are removed and placed in a natural environment for 30 minutes to observe whether there are discolorations at the point of the culture medium where the specimen is dropped in. […] Another 100 μL of the specimen is taken and coated on Columbia solid culture medium and cultivated in a three gas incubator at a constant temperature of 37° C. for 3 days to 5 days. The number of colonies on the plate is counted to determine the initial inoculation amount. The micro dilution method is adopted to test the MIC of clinical specimen H. pylori, the test is meaningful only when there is no bacterial growth in the negative control well without bacteria and there is bacterial growth in the positive well with bacteria but without antibiotics.
(1) Transfer liquid preparation: after sterilization and cooling, BHI culture medium is added with 10% calf serum, followed by 30% glycerol to prepare H. pylori preservation solution. On this basis, 1% H. pylori selective additive is added to prepare the transfer liquid. 1 mL of transfer solution is taken into a sterile EP tube, and 6-8 sterilized small steel balls are poured into the EP tube for the subsequent use.
(3) Specimen acquisition: a biopsy tissue group is obtained from the gastric antrum and a small curvature side of the gastric body through a gastroscopy biopsy passage and placed into an EP tube (strictly sterile operation). The biopsy tissue is placed on the ice surface and transferred as soon as possible (within 2 hours) to complete the subsequent steps.
(4) Preparation of bacterial solution containing tissue: the EP tube containing tissue is placed in a homogenizer at 300 hz and crushed for 5 minutes, transferred to another EP, centrifuged at 12000 rpm for 2 minutes, the supernatant is discarded, BHI is resuspended to 200 μL, and a bacterial suspension is prepared for the subsequent use.
(5) Inoculation of bacterial solution: 10 μL of bacterial solution is taken and added dropwise to the characteristic culture medium (5 pieces in total). The characteristic culture medium is removed after cultivating in a three gas incubator at 37° C. for 36 hours, and the results are determined after leaving for 30 minutes; another 100 μL is taken and coated onto Colombian culture medium for the traditional bacterial culture.

H. pylori [4] = conditions: bacterial count 1×10^6 CFU/mL; cited from earlier work

CC1(C)S[C@@H]2[C@H](NC(=O)[C@H](N)c3ccc(O)cc3)C(=O)N2[C@H]1C(=O)O [Amoxicillin, amoxicillin]
MIC (H. pylori [1]; read-out: MICs, standard sensitive strains G27 and 26695, bacterial count 1×10^6 CFU/mL): 0.0156 to 0.0325 µg/mL
MIC (H. pylori [1]; read-out: minimum inhibitory concentration (MIC), strain 159, bacterial count 10^6 CFU/mL (first line of the strain)): 0.125 µg/mL
MIC (H. pylori [1]; read-out: minimum inhibitory concentration (MIC), strain 161, bacterial count 10^6 CFU/mL (first line of the strain)): 0.125 µg/mL
MIC (H. pylori [1]; read-out: minimum inhibitory concentration (MIC), strain 162, bacterial count 10^6 CFU/mL (first line of the strain)): 0.125 µg/mL
MIC (H. pylori [1]; read-out: minimum inhibitory concentration (MIC), strain 163, bacterial count 10^4 CFU/mL): 0.25 µg/mL
MIC (H. pylori [1]; read-out: minimum inhibitory concentration (MIC), strain 163, bacterial count 10^6 CFU/mL (first line of the strain)): 1 µg/mL
MIC (H. pylori [1]; read-out: minimum inhibitory concentration (MIC), strain 163, bacterial count 10^6 CFU/mL (second line of the strain)): 0.5 µg/mL
MIC (H. pylori [1]; read-out: minimum inhibitory concentration (MIC), strain 286, bacterial count 10^4 CFU/mL): 0.5 µg/mL
MIC (H. pylori [1]; read-out: minimum inhibitory concentration (MIC), strain 286, bacterial count 10^6 CFU/mL (first line of the strain)): 1 µg/mL
MIC (H. pylori [1]; read-out: minimum inhibitory concentration (MIC), strain 286, bacterial count 10^6 CFU/mL (second line of the strain)): 0.5 µg/mL
MIC (H. pylori [1]; read-out: minimum inhibitory concentration (MIC), strain 287, bacterial count 10^6 CFU/mL (first line of the strain)): 0.25 µg/mL
MIC (H. pylori [1]; read-out: minimum inhibitory concentration (MIC), strain 287, bacterial count 10^6 CFU/mL (second line of the strain)): 0.125 µg/mL
MIC (H. pylori [1]; read-out: minimum inhibitory concentration (MIC), strain 289, bacterial count 10^4 CFU/mL): 0.125 µg/mL
MIC (H. pylori [1]; read-out: minimum inhibitory concentration (MIC), strain 289, bacterial count 10^6 CFU/mL (first line of the strain)): 1 µg/mL
MIC (H. pylori [1]; read-out: minimum inhibitory concentration (MIC), strain 289, bacterial count 10^6 CFU/mL (second line of the strain)): 0.5 µg/mL
MIC (H. pylori [1]; read-out: minimum inhibitory concentration (MIC), strain 290, bacterial count 10^4 CFU/mL): 1 µg/mL
MIC (H. pylori [1]; read-out: minimum inhibitory concentration (MIC), strain 290, bacterial count 10^6 CFU/mL (first line of the strain)): 4 µg/mL
MIC (H. pylori [1]; read-out: minimum inhibitory concentration (MIC), strain 290, bacterial count 10^6 CFU/mL (second line of the strain)): 2 µg/mL
MIC (H. pylori [1]; read-out: minimum inhibitory concentration (MIC), strain 26695, bacterial count 10^4 CFU/mL): 0.0325 µg/mL
MIC (H. pylori [1]; read-out: minimum inhibitory concentration (MIC), strain 26695, bacterial count 10^6 CFU/mL (second line of the strain)): 0.0325 µg/mL
MIC (H. pylori [1]; strain G27, bacterial count 10^4 CFU/mL, read-out: minimum inhibitory concentration (MIC)): 0.00781 µg/mL
MIC (H. pylori [1]; strain G27, bacterial count 10^6 CFU/mL (first line of the strain), read-out: minimum inhibitory concentration (MIC)): 0.0312 µg/mL
MIC (H. pylori [1]; strain G27, bacterial count 10^6 CFU/mL (second line of the strain), read-out: minimum inhibitory concentration (MIC)): 0.0156 µg/mL
drug resistance determined by discoloration of characteristic culture medium (H. pylori [2]; strain 159, 1×10^6 CFU/mL): sensitive
drug resistance determined by discoloration of characteristic culture medium (H. pylori [2]; strain 286, 1×10^6 CFU/mL): have developed resistance
drug resistance determined by discoloration of characteristic culture medium (H. pylori [2]; strain 287, 1×10^6 CFU/mL): have developed resistance
drug resistance determined by discoloration of characteristic culture medium (H. pylori [2]; strain 289, 1×10^6 CFU/mL): have developed resistance
drug resistance determined by discoloration of characteristic culture medium (H. pylori [2]; strain G27, 1×10^6 CFU/mL): does not develop resistance
drug resistance determined on characteristic culture medium ([3]; clinical H. pylori strain FY-31): sensitive
drug resistance determined on characteristic culture medium ([3]; clinical H. pylori strain FY-43): sensitive
drug resistance determined on characteristic culture medium ([3]; clinical H. pylori strain FY-47): sensitive
drug resistance determined on characteristic culture medium ([3]; clinical H. pylori strain FY-52): sensitive
resistance breakpoints of H. pylori according to CLSI guidelines (H. pylori [4]): 0.5 µg/mL
